The assay addresses T1, PI3Kδ (p110δ) (Homo sapiens, UniProt O00329).
T1 construct: gene PIK3CD
The assay is described as follows: FRET-based in vitro kinase assay; class I PI3K binding also seen in KinomeScan ATP-site competition panel ([…]). The assay is classed as biochemical.

T1 sequence (O00329 whole entry): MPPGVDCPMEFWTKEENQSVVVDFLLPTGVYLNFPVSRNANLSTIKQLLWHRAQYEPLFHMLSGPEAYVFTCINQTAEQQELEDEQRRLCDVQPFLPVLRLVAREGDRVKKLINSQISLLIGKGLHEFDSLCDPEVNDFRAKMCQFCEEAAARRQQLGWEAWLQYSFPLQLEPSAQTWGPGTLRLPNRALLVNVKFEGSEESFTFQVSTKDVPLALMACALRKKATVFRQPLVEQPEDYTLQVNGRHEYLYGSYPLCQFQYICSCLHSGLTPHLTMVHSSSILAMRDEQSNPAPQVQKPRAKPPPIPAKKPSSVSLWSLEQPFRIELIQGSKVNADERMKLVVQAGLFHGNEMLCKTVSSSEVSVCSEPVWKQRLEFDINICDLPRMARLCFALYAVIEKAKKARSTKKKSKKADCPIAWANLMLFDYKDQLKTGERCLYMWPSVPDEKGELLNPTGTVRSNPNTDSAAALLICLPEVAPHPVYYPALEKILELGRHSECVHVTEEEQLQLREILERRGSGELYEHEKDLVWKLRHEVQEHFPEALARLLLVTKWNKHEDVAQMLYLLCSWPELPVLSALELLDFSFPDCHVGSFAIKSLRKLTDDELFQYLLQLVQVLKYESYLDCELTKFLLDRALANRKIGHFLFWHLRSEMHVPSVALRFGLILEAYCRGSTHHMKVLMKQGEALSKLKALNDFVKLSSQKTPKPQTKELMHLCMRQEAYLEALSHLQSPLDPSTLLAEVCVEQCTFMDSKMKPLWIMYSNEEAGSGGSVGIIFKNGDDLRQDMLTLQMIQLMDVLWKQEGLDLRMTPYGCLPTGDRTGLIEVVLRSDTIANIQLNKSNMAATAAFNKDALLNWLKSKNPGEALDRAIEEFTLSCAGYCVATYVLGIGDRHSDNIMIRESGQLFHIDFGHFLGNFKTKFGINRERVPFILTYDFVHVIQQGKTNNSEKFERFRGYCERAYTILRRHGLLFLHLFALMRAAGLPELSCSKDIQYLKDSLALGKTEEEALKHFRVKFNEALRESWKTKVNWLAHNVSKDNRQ

A word on the IC50: it is the point on the concentration scale where inhibition reaches its midpoint. Read a low IC50 as greater potency in that assay. Substance GS-649443 [Compound B] registered an IC50 of 0.28 nM.

(Values after PMC4961957, “Dose-Dependent Suppression of Cytokine production from T cells by a Novel Phosphoinositide 3-Kinase Delta Inhibitor” (Scientific Reports, 2016).)
